Data on 7 compounds can be found in patent US9957214B2, “Multifunctional radical quenchers” (ARIZONA BOARD OF REGENTS ON BEHALF OF ARIZONA STATE …, priority 2012, dated 2018).

One test relates to FRDA lymphocytes. Nature of the test: Suppression of lipid peroxidation (C11-BODIPY581/591, FACS) in FRDA lymphocytes treated with diethyl maleate. Type of test: cell-based. The conditions noted are these: Lymphocyte, DEM, read-out: Scavenging activity (%), suppression of lipid peroxidation. The gist of the method:
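Cells (5×10^5/mL) given compound at 5 and 10 μM for 16 h at 37° C, loaded with 1 μM C11-BODIPY581/591 for 30 min, then stressed with 5 mM DEM for 2 h. Probe oxidation read by FACS.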

Test [1] relates to Friedreich's ataxia lymphoblast cell line GM15850. Nature of the test: Cytoprotection (trypan blue exclusion assay) of DEM-treated FRDA lymphocytes. It is filed as cell-based. The conditions noted are these: Homo sapiens, GM15850, DEM alone 18 ± 10% viability, read-out: Cytoprotection (cell viability, % of untreated control). The gist of the method:
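GM15850 FRDA lymphoblasts at 5×10^5 cells/mL pre-incubated with test compounds for 17 h at 37 °C, then exposed to 5 mM DEM to deplete GSH. Viability by 0.4% trypan blue exclusion, ≥500 cells counted per group, expressed as % of non-DEM control; means±S.E.M., n=3.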

Test [2] concerns NADH oxidase (complexes I, III and IV). Put plainly: NADH oxidase activity (complexes I, III and IV) in submitochondrial particles. It is filed as biochemical, bovine.

As to `CCCCCCCCCCCCCC1=C(OC)C(=O)C=C(NCCCC(=O)OC(C)(C)C)C1=O` [Compound 7, tert-butyl 4-(4-methoxy-3,6-dioxo-5-tridecylcyclohexa-1,4-dienylamino)butanoate], in the test with FRDA lymphocytes, the inhibition at 5 µM worked out at 72 ± 1.8% and the inhibition at 10 µM was 86%. Besides, in test [1], the viability at 0.5 µM came to 80%, the viability at 1 µM was 80%, the viability at 2.5 µM worked out at 84 ± 5% and the viability at 5 µM was 93 ± 4%. In addition, the “NADH oxidase activity (Complex I, III, IV) %” value in test [2] (1 μM) came out at 84 ± 1.0%. The “NADH oxidase activity (Complex I, III, IV) %” value in test [2] (5 μM) worked out at 77 ± 4.0%.
Take `CCCCCCCCCCCCCC1=C(OC)C(=O)C=C(NCCCC(=O)OCCCCCC)C1=O` [Compound 18, Hexyl 4-(4-methoxy-3,6-dioxo-5-tridecylcyclohexa-1,4-dienylamino)butanoate]: in the test with FRDA lymphocytes, the inhibition at 5 µM came out at 81 ± 1.6% and the inhibition at 10 µM is 98%. For the same compound, the viability at 5 µM in test [1] amounted to 90 ± 2%. In addition, in test [2] (1 μM), the “NADH oxidase activity (Complex I, III, IV) %” value came to 54 ± 5.0%. Also, the “NADH oxidase activity (Complex I, III, IV) %” value in test [2] (5 μM) is recorded as 27 ± 3.0%.
`COC1=C2CCCCCCCCCCCCCCCNC(=CC1=O)C2=O` [Compound 40]: the inhibition at 1 µM in the test on FRDA lymphocytes (1 μM) came out at 29 ± 4.7%. Further, in the test with FRDA lymphocytes, the inhibition at 5 µM was 72% and the inhibition at 10 µM stood at 83%. The viability at 0.1 µM in test [1] (0.1 μM) is 36 ± 4.3%. Also, in test [1], the viability at 0.5 µM stood at 69 ± 2.3%, the viability at 2.5 µM was 83% and the viability at 5 µM was 92 ± 3.5%. For the same compound, the “NADH oxidase activity (Complex I, III, IV) %” value in test [2] (1 μM) is 95 ± 3^ %. The “NADH oxidase activity (Complex I, III, IV) %” value in test [2] (5 μM) is listed as 85 ± 1^ %. In addition, in test [2] (10 μM), the “NADH oxidase activity (Complex I, III, IV) %” value amounted to 70 ± 1%.
For `CCCCCCCCCCCCCC1=C(OC)C(=O)C(C)=C(NCCCC(=O)OC(C)(C)C)C1=O` [Compound 43, tert-butyl 4-(4-methoxy-2-methyl-3,6-dioxo-5-tridecylcyclohexa-1,4-dienylamino)butanoate], in the test on FRDA lymphocytes, the inhibition at 5 µM worked out at 61 ± 4%. In the test with FRDA lymphocytes, the inhibition at 10 µM was 75 ± 2%. Besides, the viability at 1 µM in test [1] was found to be 67 ± 5%. Besides, in test [1], the viability at 5 µM was determined as 91 ± 6%. Moreover, the “NADH oxidase activity (Complex I, III, IV) %” value is 87 ± 2^ % in test [2] (1 μM), 85 ± 1^ % in test [2] (5 μM) and 80 ± 1% in test [2] (10 μM).
As for `CCCCCCCCCCCCCC1=C(OC)C(=O)C(C)=C(NCCCC(=O)OCCCC)C1=O` [Compound 46, Butyl 4-(4-methoxy-2-methyl-3,6-dioxo-5-tridecylcyclohexa-1,4-dienylamino)butanoate], the inhibition at 5 µM in the test with FRDA lymphocytes is 60 ± 1%. In the test on FRDA lymphocytes, the inhibition at 10 µM stood at 70 ± 3%. Besides, the viability at 1 µM in test [1] was 63 ± 4%. Also, in test [1], the viability at 5 µM came out at 95 ± 3%. For the same compound, the “NADH oxidase activity (Complex I, III, IV) %” value in test [2] (1 μM) was 86 ± 2^ %; in test [2] (5 μM) it was 84 ± 4^ %; in test [2] (10 μM), 68 ± 1%.
Consider `CCCCCCCCCCCCCC1=C(OC)C(=O)C(C)=C(NCCCC(=O)OCCCCCC)C1=O` [Compound 49, Hexyl 4-(4-methoxy-2-methyl-3,6-dioxo-5-tridecylcyclohexa-1,4-dienylamino)butanoate], for which, in the test on FRDA lymphocytes, the inhibition at 5 µM stood at 8 ± 3% and the inhibition at 10 µM worked out at 13 ± 3%. Further, in test [1], the viability at 1 µM is 16 ± 4% and the viability at 5 µM stood at 87 ± 4%. In test [2] (1 μM), the “NADH oxidase activity (Complex I, III, IV) %” value is 74 ± 2^ %. In addition, the “NADH oxidase activity (Complex I, III, IV) %” value in test [2] (5 μM) is given as 83 ± 2^ %. Moreover, the “NADH oxidase activity (Complex I, III, IV) %” value in test [2] (10 μM) amounted to 74 ± 2%.
On to `CCCCCCCCCCCCCC1=C(NCCCC(=O)OCCCCCC)C(=O)C(C)=C(NCCCC(=O)OCCCCCC)C1=O` [Compound 50, 2,5-bis(hexyl 4-aminobutanoate)-3-methyl-6-tridecylcyclohexa-2,5-diene-1,4-dione], for which, in the test with FRDA lymphocytes, the inhibition at 5 µM stood at 18 ± 1% and the inhibition at 10 µM worked out at 23 ± 4%. In addition, in test [1], the viability at 1 µM was found to be 11 ± 2% and the viability at 5 µM came to 91 ± 3%. Further, in test [2] (1 μM), the “NADH oxidase activity (Complex I, III, IV) %” value is recorded as 85 ± 1^ %. For the same compound, the “NADH oxidase activity (Complex I, III, IV) %” value in test [2] (5 μM) is on record as 78 ± 6^ %. For the same compound, in test [2] (10 μM), the “NADH oxidase activity (Complex I, III, IV) %” value worked out at 70 ± 3%.
